Test results: patent publication US12421229B2, “Hydropyrido[1,2-α]pyrazine compounds for the treatment of autoimmune disease” (Hoffmann-La Roche Inc., priority 2019, dated 2025)

Target: T1, human TLR9 (Homo sapiens, UniProt Q9NR96)
T1 construct: host or cells: HEK293 (HEK-Blue hTLR9)
T1 sequence (Q9NR96 26-1032): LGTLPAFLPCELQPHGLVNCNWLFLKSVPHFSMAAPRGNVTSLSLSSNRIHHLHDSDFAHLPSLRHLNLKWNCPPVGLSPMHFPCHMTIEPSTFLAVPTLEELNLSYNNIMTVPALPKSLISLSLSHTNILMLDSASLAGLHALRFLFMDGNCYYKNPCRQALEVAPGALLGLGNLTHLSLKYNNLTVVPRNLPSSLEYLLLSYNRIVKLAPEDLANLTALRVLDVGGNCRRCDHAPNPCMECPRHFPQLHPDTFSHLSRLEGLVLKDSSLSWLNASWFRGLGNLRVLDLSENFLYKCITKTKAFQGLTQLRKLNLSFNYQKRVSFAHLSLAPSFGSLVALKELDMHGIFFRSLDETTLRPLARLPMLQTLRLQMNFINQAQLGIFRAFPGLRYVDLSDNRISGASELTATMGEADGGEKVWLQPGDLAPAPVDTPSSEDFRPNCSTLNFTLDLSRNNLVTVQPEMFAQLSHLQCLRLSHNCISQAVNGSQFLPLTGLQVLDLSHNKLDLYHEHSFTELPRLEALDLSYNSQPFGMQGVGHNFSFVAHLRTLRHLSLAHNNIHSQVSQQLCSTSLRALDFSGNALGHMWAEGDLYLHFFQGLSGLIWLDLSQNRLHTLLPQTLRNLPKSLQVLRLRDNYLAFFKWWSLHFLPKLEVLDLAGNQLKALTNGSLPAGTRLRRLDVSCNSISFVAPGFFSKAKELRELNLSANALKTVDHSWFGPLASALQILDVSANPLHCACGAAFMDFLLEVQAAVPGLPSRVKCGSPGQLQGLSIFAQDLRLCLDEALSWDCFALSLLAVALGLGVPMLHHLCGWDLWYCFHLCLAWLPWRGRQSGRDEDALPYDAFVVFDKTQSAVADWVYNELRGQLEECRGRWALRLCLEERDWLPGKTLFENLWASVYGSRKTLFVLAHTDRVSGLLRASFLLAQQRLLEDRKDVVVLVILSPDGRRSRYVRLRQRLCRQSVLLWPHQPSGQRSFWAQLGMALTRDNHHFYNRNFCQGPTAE
Assay: HEK293-Blue-hTLR-9 cells assay
Type: cell-based
Conditions: HEK293-Blue-hTLR9 cells, ODN2006 stimulation, 20 hrs, SEAP reporter; read-out: HEK/hTLR9 IC50
Description: A stable HEK293-Blue-hTLR-9 cell line was purchased from InvivoGen (Cat. #: hkb-htlr9, San Diego, California, USA). These cells were originally designed for studying the stimulation of human TLR9 by monitoring the activation of NF-κB. A SEAP (secreted embryonic alkaline phosphatase) reporter gene was placed under the control of the IFN-β minimal promoter fused to five NF-κB and AP-1-binding sites. The SEAP was induced by activating NF-κB and AP-1 via stimulating HEK-Blue hTLR9 cells with TLR9 ligands. Therefore the reporter expression was declined by TLR9 antagonist under the stimulation of a ligand, such as ODN2006 (Cat. #: tlrl-2006-1, Invivogen, San Diego, California, USA), for incubation of 20 hrs. The cell culture supernatant SEAP reporter activity was determined using QUANTI-Blue™ kit (Cat. #: rep-qb1, Invivogen, San Diego, California, USA) at a wavelength of 640 nm, a detection medium that turns purple or blue in the presence of alkaline phosphatase.
HEK293-Blue-hTLR9 cells were incubated at a density of 250,000˜450,000 cells/mL in a volume of 170 μL in a 96-well plate in Dulbecco's Modified Eagle's medium (DMEM) containing 4.5 g/L glucose, 50 U/mL penicillin, […], 2 mM L-glutamine, 10% (v/v) heat-inactivated fetal bovine serum with addition of 20 μL test compound in a serial dilution in the presence of final DMSO at 1% and 10 μL of 20 uM ODN2006 in above DMEM, perform incubation under 37° C. in a CO2 incubator for 20 hrs. Then 20 μL of the supernatant from each well was incubated with 180 μL Quanti-blue substrate solution at 37° C. for 2 h and the absorbance was read at 620˜655 nm using a spectrophotometer. The signaling pathway that TLR9 activation leads to downstream NF-κB activation has been widely accepted, and therefore similar reporter assay was modified for evaluating TLR9 antagonist.

Row | SMILES | IC50 [nM]
1 | C[C@@H]1CN(c2ccc(C#N)c3ncccc23)C[C@@H]2C[C@H](Nc3ccc([C@H]4CNCCO4)cc3)CCN21 [Example 20, 5-[(4R,8R,9aS)-4-methyl-8-[4-[(2S)-morpholin-2-yl]anilino]-1,3,4,6,7,8,9,9a-octahydropyrido[1,2-a]pyrazin-2-yl]quinoline-8-carbonitrile] | 50
2 | CO[C@@H]1CN(c2ccc(C3CN([C@@H]4CCN5[C@@H](C4)CN(c4ccc(C#N)c6ncccc46)C[C@H]5C)C3)cc2)C[C@H]1N [Example 30, 5-[(4R,8R,9aS)-8-[3-[4-[(3R,4R)-3-amino-4-methoxy-pyrrolidin-1-yl]phenyl]azetidin-1-yl]-4-methyl-1,3,4,6,7,8,9,9a-octahydropyrido[1,2-a]pyrazin-2-yl]quinoline-8-carbonitrile] | 78
3 | C[C@@H]1CN(c2ccc(C#N)c3ncccc23)C[C@H]2C[C@H](c3ccc(N4CCNCC4)nc3)CCN21 [Example 15, 5-[(4R,8R,9aR)-4-methyl-8-(6-piperazin-1-yl-3-pyridyl)-1,3,4,6,7,8,9,9a-octahydropyrido[1,2-a]pyrazin-2-yl]quinoline-8-carbonitrile] | 84
4 | C[C@@H]1CN(c2ccc(C#N)c3ncccc23)C[C@@H]2C[C@H](c3ccc(N4CCOC[C@@H](N)C4)nc3)CCN21 [Example 23, 5-[(4R,8R,9aS)-8[6-[(6S)-6-amino-1,4-oxazepan-4-yl]-3-pyridyl]-4-methyl-1,3,4,6,7,8,9,9a-octahydropyrido[1,2-a]pyrazin-2-yl]quinoline-8-carbonitrile] | 75
5 | CO[C@H]1CN(c2ccc([C@@H]3CCN4[C@@H](C3)CN(c3ccc(C#N)c5ncccc35)C[C@H]4C)cn2)C[C@@H]1N [Example 6, 5-[(4R,8R,9aS)-8-[6-[(3S,4S)-3-amino-4-methoxy-pyrrolidin-1-yl]-3-pyridyl]-4-methyl-1,3,4,6,7,8,9,9a-octahydropyrido[1,2-a]pyrazin-2-yl]quinoline-8-carbonitrile] | 87
6 | C[C@@H]1CN(c2ccc(C#N)c3ncccc23)C[C@@H]2C[C@@H](NCc3ccc(N4CCNCC4)cc3)CCN21 [Example 17, 5-[(4R,8S,9aS)-4-methyl-8-[(4-piperazin-1-ylphenyl)methylamino]-1,3,4,6,7,8,9,9a-octahydropyrido[1,2-a]pyrazin-2-yl]quinoline-8-carbonitrile] | < 32
7 | C[C@@H]1CN(c2ccc(C#N)c3ncccc23)C[C@@H]2C[C@@H](c3ccc(CC4CNCCO4)cc3)CCN21 (stereo partly drawn) [Example 26, 5-[(4R,8S,9aS)-4-methyl-8-[4-(morpholin-2-ylmethyl)phenyl]-1,3,4,6,7,8,9,9a-octahydropyrido[1,2-a]pyrazin-2-yl]quinoline-8-carbonitrile] | 95
8 | C[C@@H]1CN(c2ccc(C#N)c3ncccc23)C[C@@H]2C[C@H](c3ccc(N4CCNCC4)nc3)CCN21 [Example 4, 5-[(4R,8R,9aS)-4-methyl-8-(6-piperazin-1-yl-3-pyridyl)-1,3,4,6,7,8,9,9a-octahydropyrido[1,2-a]pyrazin-2-yl]quinoline-8-carbonitrile] | 86
9 | [2H]c1ccc2c(N3C[C@@H]4C[C@H](Nc5ccc(C[C@@H]6CNCCO6)cc5)CCN4[C@H](C)C3)ccc(C#N)c2n1 [Example 22, 5-[(4R,8R,9aS)-4-methyl-8-[4-[[(2R)-morpholin-2-yl]methyl]anilino]-1,3,4,6,7,8,9,9a-octahydropyrido[1,2-a]pyrazin-2-yl]-2-deuterio-quinoline-8-carbonitrile] | 84
10 | C[C@@H]1CN(c2ccc(C#N)c3ncccc23)C[C@@H]2C[C@@H](Oc3cncc(N4CCNCC4)c3)CCN21 [Example 29, 5-[(4R,8S,9aS)-4-methyl-8-[(5-piperazin-1-yl-3-pyridyl)oxy]-1,3,4,6,7,8,9,9a-octahydropyrido[1,2-a]pyrazin-2-yl]quinoline-8-carbonitrile] | 89
11 | C[C@@H]1CN(c2ccc(C#N)c3ncccc23)C[C@@H]2C[C@@H](Oc3ccc(N4CCNCC4)nc3)CCN21 [Example 16, 5-[(4R,8S,9aS)-4-methyl-8-[(6-piperazin-1-yl-3-pyridyl)oxy]-1,3,4,6,7,8,9,9a-octahydropyrido[1,2-a]pyrazin-2-yl]quinoline-8-carbonitrile] | 37
12 | CO[C@H]1CN(c2ccc([C@@H]3CCN4[C@@H](C3)CN(c3ccc(C#N)c5ncccc35)C[C@H]4C)cn2)C[C@H]1N [Example 12, 5-[(4R,8R,9aS)-8-[6-[(3R,4S)-3-amino-4-methoxy-pyrrolidin-1-yl]-3-pyridyl]-4-methyl-1,3,4,6,7,8,9,9a-octahydropyrido[1,2-a]pyrazin-2-yl]quinoline-8-carbonitrile] | 66
13 | C[C@@H]1CN(c2ccc(C#N)c3ncccc23)C[C@@H]2C[C@H](c3ccc(N4C[C@@H](N)[C@@H](F)C4)nc3)CCN21 [Example 19, 5-[(4R,8R,9aS)-8-[6-[(3R,4S)-3-amino-4-fluoro-pyrrolidin-1-yl]-3-pyridyl]-4-methyl-1,3,4,6,7,8,9,9a-octahydropyrido[1,2-a]pyrazin-2-yl]quinoline-8-carbonitrile] | 82
14 | CO[C@@H]1CN(c2ccc([C@@H]3CCN4[C@@H](C3)CN(c3ccc(C#N)c5ncccc35)C[C@H]4C)cn2)C[C@@H]1N [Example 13, 5-[(4R,8R,9aS)-8-[6-[(3S,4R)-3-amino-4-methoxy-pyrrolidin-1-yl]-3-pyridyl]-4-methyl-1,3,4,6,7,8,9,9a-octahydropyrido[1,2-a]pyrazin-2-yl]quinoline-8-carbonitrile] | 94
15 | C[C@@H]1CN(c2ccc(C#N)c3ncccc23)C[C@@H]2CC(c3ccc(C[C@@H]4CNCCO4)cc3)CCN21 (stereo in doubt) [Example 25, 5-[(4R,8R,9aS)-4-methyl-8-[4-[[(2R)-morpholin-2-yl]methyl]phenyl]-1,3,4,6,7,8,9,9a-octahydropyrido[1,2-a]pyrazin-2-yl]quinoline-8-carbonitrile] | 78
16 | C[C@@H]1CN(c2ccc(C#N)c3ncccc23)C[C@@H]2C[C@@H](Oc3ccc(N4CCNCC4)cn3)CCN21 [Example 11, 5-[(4R,8S,9aS)-4-methyl-8-[(5-piperazin-1-yl-2-pyridyl)oxy]-1,3,4,6,7,8,9,9a-octahydropyrido[1,2-a]pyrazin-2-yl]quinoline-8-carbonitrile] | 90
17 | C[C@@H]1CN(c2ccc(C#N)c3ncccc23)C[C@@H]2C[C@@H](Oc3cnc(N4CCNCC4)nc3)CCN21 [Example 18, 5-[(4R,8S,9aS)-4-methyl-8-(2-piperazin-1-ylpyrimidin-5-yl)oxy-1,3,4,6,7,8,9,9a-octahydropyrido[1,2-a]pyrazin-2-yl]quinoline-8-carbonitrile] | 60
18 | C[C@@H]1CN(c2ccc(C#N)c3ncccc23)C[C@@H]2C[C@H](c3ccc([C@@H]4CNCCO4)cc3)CCN21 [Example 27, 5-[(4R,8R,9aS)-4-methyl-8-[4-[(2R)-morpholin-2-yl]phenyl]-1,3,4,6,7,8,9,9a-octahydropyrido[1,2-a]pyrazin-2-yl]quinoline-8-carbonitrile] | 72
